target: TNFα (Homo sapiens, UniProt P01375); test: HEK-Blue hTNFα reporter assay; format: cell-based; design: purchased R&D biosystem (R&D Systems) 210-TA-020/CF; conditions: HEK-Blue hTNFα reporter cells, SEAP readout; read-out: IC50 Range
In short: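 Compounds preincubated 1 h at 37 °C with recombinant hTNFα ([…]), then added to HEK293 NF-κB-SEAP reporter cells, 10000 cells/well, 24 h at 37 °C. SEAP read by QUANTI-Blue at OD620; % inhibition versus stimulated and unstimulated controls, IC50 by 4-parameter fit.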

Sequence of TNFα (P01375 77-233 limits assumed): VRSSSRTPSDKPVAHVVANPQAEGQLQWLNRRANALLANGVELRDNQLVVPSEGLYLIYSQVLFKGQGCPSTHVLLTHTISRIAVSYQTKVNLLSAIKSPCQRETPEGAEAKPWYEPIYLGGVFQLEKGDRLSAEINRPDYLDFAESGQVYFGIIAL

IC50, < 0.025 µM:
CN1C(=O)c2cccc(OC(F)F)c2[C@H]2C[C@@H]1c1nn3ccc(-c4cnc([C@]5(O)CC[C@@H](O)C5)nc4)cc3c12 [Example 101]
CN1C(=O)c2cccc(OC(F)F)c2[C@H]2C[C@@H]1c1nn3ccc(-c4cnc([C@@]5(O)CC[C@H](O)C5)nc4)cc3c12 [Example 102]
CN1C(=O)c2cccc(OC(F)F)c2[C@H]2C[C@@H]1c1nn3ccc(-c4cnc([C@H](N)C5CC5)nc4)cc3c12 [Example 103]
CN1C(=O)c2cccc(OC(F)F)c2[C@H]2C[C@@H]1c1nn3ccc(-c4cnc([C@@H](N)C5CC5)nc4)cc3c12 [Example 104]
CN1C(=O)c2cccc(OC(F)F)c2[C@H]2C[C@@H]1c1nn3ccc(-c4cnc([C@H](O)C(F)F)nc4)cc3c12 [Example 105]
CN1C(=O)c2cccc(OC(F)F)c2[C@H]2C[C@@H]1c1nn3ccc(-c4cnc([C@@H](O)C(F)F)nc4)cc3c12 [Example 106]
CN1C(=O)c2cccc(OC(F)F)c2[C@H]2C[C@@H]1c1nn3ccc(-c4ncc([C@@H](O)C5COC5)cn4)cc3c12 [Example 107]
CN1C(=O)c2cccc(OC(F)F)c2[C@H]2C[C@@H]1c1nn3ccc(-c4ncc([C@H](O)C5COC5)cn4)cc3c12 [Example 108]
CN1C(=O)c2cccc(OC(F)F)c2[C@H]2C[C@@H]1c1nn3cc(F)c(-c4cnc([C@]5(O)C[C@@](C)(O)C5)nc4)cc3c12 [Example 109]
CN1C(=O)c2cccc(OC(F)F)c2[C@H]2C[C@@H]1c1nn3ccc(-c4cnc([C@]5(O)CC[C@H](O)C5)nc4)cc3c12 [Example 111]
CN1C(=O)c2cccc(OC(F)F)c2[C@H]2C[C@@H]1c1nn3ccc(-c4cnc([C@@]5(O)CC[C@@H](O)C5)nc4)cc3c12 [Example 112]
[2H]C([2H])([2H])N1C(=O)c2cccc(OC(F)F)c2[C@H]2C[C@@H]1c1nn3cc(F)c(-c4ccc(P(C)(C)=O)nc4)cc3c12 [Example 113]
CN1C(=O)c2cccc(OC(F)F)c2[C@H]2C[C@@H]1c1nn3cc(F)c(-c4cnc([C@](C)(O)CO)nc4)cc3c12 [Example 114]
CN1C(=O)c2cccc(OC(F)F)c2[C@H]2C[C@@H]1c1nn3cc(F)c(-c4cnc([C@@](C)(O)CO)nc4)cc3c12 [Example 115]
CN1C(=O)c2cccc(OC(F)F)c2[C@H]2C[C@@H]1c1nn3cc(F)c(-c4cnc([C@@](C)(O)CC#N)nc4)cc3c12 [Example 116]
CN1C(=O)c2cccc(OC(F)F)c2[C@H]2C[C@@H]1c1nn3cc(F)c(-c4cnc([C@](C)(O)CC#N)nc4)cc3c12 [Example 117]
C[C@H](O)[C@@H](O)c1ncc(-c2ccn3nc4c(c3c2)[C@@H]2C[C@H]4N(C)C(=O)c3cccc(OC(F)F)c32)cn1 [Example 118]
C[C@@H](O)[C@H](O)c1ncc(-c2ccn3nc4c(c3c2)[C@@H]2C[C@H]4N(C)C(=O)c3cccc(OC(F)F)c32)cn1 [Example 119]
CN1C(=O)c2cccc(OC(F)F)c2[C@H]2C[C@@H]1c1nn3cc(F)c(-c4ccc([S@@](=N)(=O)C5CC5)nc4)cc3c12 [Example 120]
CN1C(=O)c2cccc(OC(F)F)c2[C@H]2C[C@@H]1c1nn3ccc(-c4ccc(P(C)(C)=O)cn4)cc3c12 [Example 122]
CN1C(=O)c2cccc(OC(F)F)c2[C@H]2C[C@@H]1c1nn3ccc(-c4ccc(P(C)(C)=O)cc4)cc3c12 [Example 123]
[2H]C([2H])([2H])N1C(=O)c2cccc(OC(F)F)c2[C@H]2C[C@@H]1c1nn3ccc(-c4ccc(S(=N)(=O)CC)nc4)cc3c12 (stereo partly drawn) [Example 124]
CN1C(=O)c2cccc(OC(F)F)c2[C@H]2C[C@@H]1c1nn3cc(F)c(-c4cnc([C@]5(O)C[C@@H](O)C5)nc4)cc3c12 [Example 125]
CN1C(=O)c2cccc(OC(F)F)c2[C@H]2C[C@@H]1c1nn3ccc(-c4cnc(S(=N)(=O)C5CC5)cn4)cc3c12 (stereo partly drawn) [Example 126]
CP(C)(=O)c1ccc(-c2ccn3nc4c(c3c2)[C@@H]2C[C@H]4NC(=O)c3cccc(OC(F)F)c32)cc1F [Example 127]
CN1C(=O)c2cccc(OC(F)F)c2[C@H]2C[C@@H]1c1nn3cc(F)c(-c4cnc(P(C)(C)=O)cn4)cc3c12 [Example 128]
CN1C(=O)c2cccc(OC(F)F)c2[C@H]2C[C@@H]1c1nn3ccc(-c4ncc([C@@H](O)[C@@H]5CCO5)cn4)cc3c12 [Example 129]
CN1C(=O)c2cccc(OC(F)F)c2[C@H]2C[C@@H]1c1nn3ccc(-c4ncc([C@@H](O)[C@H]5CCO5)cn4)cc3c12 [Example 130]
CN1C(=O)c2cccc(OC(F)F)c2[C@H]2C[C@@H]1c1nn3ccc(-c4ncc([C@H](O)[C@@H]5CCO5)cn4)cc3c12 [Example 131]
CN1C(=O)c2cccc(OC(F)F)c2[C@H]2C[C@@H]1c1nn3ccc(-c4ncc([C@H](O)[C@H]5CCO5)cn4)cc3c12 [Example 132]
CN1C(=O)c2cccc(OC(F)F)c2[C@H]2C[C@@H]1c1nn3ccc(-c4cnc([C@H](O)C(C)(C)O)nc4)cc3c12 [Example 133]
CN1C(=O)c2cccc(OC(F)F)c2[C@H]2C[C@@H]1c1nn3ccc(-c4cnc([C@@H](O)C(C)(C)O)nc4)cc3c12 [Example 134]
C[C@H](O)[C@H](O)c1ncc(-c2ccn3nc4c(c3c2)[C@@H]2C[C@H]4N(C)C(=O)c3cccc(OC(F)F)c32)cn1 [Example 135]
CN1C(=O)c2cccc(OC(F)F)c2[C@H]2C[C@@H]1c1nn3ccc(-c4cnc([C@@H](O)C5COC5)nc4)cc3c12 [Example 136]
CN1C(=O)c2cccc(OC(F)F)c2[C@H]2C[C@@H]1c1nn3ccc(-c4cnc([C@H](O)C5COC5)nc4)cc3c12 [Example 137]
CN1C(=O)c2cccc(OC(F)F)c2[C@H]2C[C@@H]1c1nn3ccc(-c4ncc(P(C)(C)=O)cn4)cc3c12 [Example 138]
CN1C(=O)c2cccc(OC(F)F)c2[C@H]2C[C@@H]1c1nn3ccc(-c4cnc([C@]5(O)C[C@](C)(O)C5)nc4)cc3c12 [Example 139]
O=C1N[C@@H]2C[C@H](c3c(OC(F)F)cccc31)c1c2nn2ccc(-c3cnc(C4(O)CCC4)nc3)cc12 [Example 140]
CN1C(=O)c2cccc(OC(F)F)c2[C@H]2C[C@@H]1c1nn3ccc(-c4ncc([C@]5(O)C[C@@](C)(O)C5)cn4)cc3c12 [Example 142]
CN1C(=O)c2cccc(OC(F)F)c2[C@H]2C[C@@H]1c1nn3ccc(-c4cnc(N5CCNCC5)nc4)cc3c12 [Example 143]
CN1C(=O)c2cccc(OC(F)F)c2[C@H]2C[C@@H]1c1nn3cnc(-c4ccc(P(C)(C)=O)c(F)c4)cc3c12 [Example 144]
CN1C(=O)c2cccc(OC(F)F)c2[C@H]2C[C@@H]1c1nn3ccc(-c4cnc(N5CCN(CCO)CC5)nc4)cc3c12 [Example 145]
CN1C(=O)c2cccc(OC(F)F)c2[C@H]2C[C@@H]1c1nn3cnc(-c4cnc(C5(N)CC(F)(F)C5)nc4)cc3c12 [Example 146]
Cc1nc([C@]2(O)C[C@@](C)(O)C2)ncc1-c1ccn2nc3c(c2c1)[C@@H]1C[C@H]3N(C)C(=O)c2cccc(OC(F)F)c21 [Example 147]
CC(=O)N1CCN(c2ncc(-c3ccn4nc5c(c4c3)[C@@H]3C[C@H]5N(C)C(=O)c4cccc(OC(F)F)c43)cn2)CC1 [Example 148]
O=C1N[C@@H]2C[C@H](c3c(OC(F)F)cccc31)c1c2nn2ccc(-c3cnc(C4(O)CC(F)(F)C4)nc3)cc12 [Example 150]
C[C@@](O)(c1ncc(-c2ccn3nc4c(c3c2)[C@@H]2C[C@H]4NC(=O)c3cccc(OC(F)F)c32)cn1)C(F)F [Example 151]
C[C@](O)(c1ncc(-c2ccn3nc4c(c3c2)[C@@H]2C[C@H]4NC(=O)c3cccc(OC(F)F)c32)cn1)C(F)F [Example 152]
[2H]C([2H])([2H])N1C(=O)c2cccc(OC(F)F)c2[C@H]2C[C@@H]1c1nn3ccc(-c4cnc(C5(O)COC5)nc4)cc3c12 [Example 153]
CN1C(=O)c2cccc(OC(F)F)c2[C@H]2C[C@@H]1c1nn3ccc(-c4ccc([C@]5(N)C[C@@](C)(C(=O)O)C5)c(F)c4)cc3c12 [Example 154]
CN1CCN(c2ncc(-c3ccn4nc5c(c4c3)[C@@H]3C[C@H]5N(C)C(=O)c4cccc(OC(F)F)c43)cn2)CC1 [Example 155]
CN1C(=O)c2cccc(OC(F)F)c2[C@H]2C[C@@H]1c1nn3ccc(-c4cnc(N5CCC(O)CC5)nc4)cc3c12 [Example 156]
CN1C(=O)c2cccc(OC(F)F)c2[C@H]2C[C@@H]1c1nn3ccc(-c4cnc(N5CCOCC5)nc4)cc3c12 [Example 158]
CN1C(=O)c2ccnc(OC(F)F)c2[C@H]2C[C@@H]1c1nn3cc(F)c(-c4ccc(P(C)(C)=O)c(F)c4)cc3c12 [Example 159]
